Reference: ChEMBL document CHEMBL1131979, “Synthesis and SAR studies of 1-substituted-n-(4-alkoxycarbonylpiperidin-1-yl)alkanes as potent antiarrhythmic agents” (Bioorg Med Chem Lett, 1999)
Blank lines part the entries; values can stand above or below the compound they belong to. The source made the active and inactive calls. No cut-off for these calls is given here.

How the values were obtained:
[1] = Lipophilicity was determined; assay type: physicochemical; settings: octanol/water
[2] = species: Cavia porcellus; test: Antiarrhythmic effect expressed as percent reduction of the maximal rate of stimulation for antiarrhythmic activity in guinea pig auricle at 8 uM; assay type: functional, Heart
[3] = system: Cavia porcellus; test: Appearance of ectopic beat (EA) in guinea pig tested for in vivo antiarrhythmic activity against ouabain induced cardiac arrhythmias at a dose of 10 mg/kg by iv administration; assay type: functional, Heart
[4] = system: Cavia porcellus; test: Appearance of ectopic beat (EA) in guinea pig tested for in vivo antiarrhythmic activity against ouabain induced cardiac arrhythmias at a dose of 20 mg/kg by po administration; assay type: functional, Heart
[5] = system: Cavia porcellus; test: Cardiac arrest(CA) in […] guinea pig tested for in vivo antiarrhythmic activity against ouabain induced cardiac arrhythmias at a dose of 20 mg/kg by po administration; assay type: functional, Heart
[6] = system: Cavia porcellus; test: Change in heart rate(HR) in guinea pig tested for in vivo antiarrhythmic activity against ouabain induced cardiac arrhythmias at a dose of 10 mg/kg by iv administration; value ranges from 17-30%; assay type: functional
[7] = system: Cavia porcellus; test: Change in heart rate(HR) in guinea pig tested for in vivo antiarrhythmic activity against ouabain induced cardiac arrhythmias at a dose of 20 mg/kg by po administration; value ranges from 10-35%; assay type: functional
[8] = system: Cavia porcellus; test: Cardiac arrest(CA) in guinea pig tested for in vivo antiarrhythmic activity against ouabain induced cardiac arrhythmias at a dose of 10 mg/kg by iv administration; assay type: functional, Heart
[9] = system: Cavia porcellus; test: Ventricular fibrillation (VF) in guinea pig tested for in vivo antiarrhythmic activity against ouabain induced cardiac arrhythmias at a dose of 10 mg/kg by iv administration; assay type: functional, Heart
[10] = system: Cavia porcellus; test: Ventricular fibrillation (VF) in guinea pig tested for in vivo antiarrhythmic activity against ouabain induced cardiac arrhythmias at a dose of 20 mg/kg by po administration; assay type: functional, Heart
[11] = system: Rattus norvegicus; test: Ventricular fibrillation (VF) in rats tested for in vivo Antiarrhythmic activity against aconitine induced arrhythmias at a dose of 10 mg/kg by iv administration; assay type: functional, Heart
[12] = system: Rattus norvegicus; test: Ventricular tachycardia (VT) in rats tested for in vivo Antiarrhythmic activity against aconitine induced arrhythmias at a dose of 10 mg/kg by iv administration; assay type: functional, Heart
[13] = system: Rattus norvegicus; test: Ventricular tachycardia (VT) in rats tested for in vivo Antiarrhythmic activity against aconitine induced arrhythmias at a dose of 25 mg/kg by po administration; assay type: functional, Heart
[14] = system: Rattus norvegicus; test: Change in heart rate(HR) in rats tested for in vivo antiarrhythmic activity against aconitine induced arrhythmia at a dose of 10 mg/kg by iv administration; value ranges from 16-34; assay type: functional
[15] = system: Rattus norvegicus; test: Change in heart rate(HR) in rats tested for in vivo antiarrhythmic activity against aconitine induced arrhythmias at a dose of 25 mg/kg by po administration; value ranges from 16-34; assay type: functional
[16] = system: Rattus norvegicus; test: Appearance of ectopic beat (EA) in rats tested for in vivo Antiarrhythmic activity against aconitine induced arrhythmias at a dose of 10 mg/kg by iv administration; assay type: functional, Heart
[17] = system: Rattus norvegicus; test: Appearance of ectopic beat (EA) in rats tested for in vivo Antiarrhythmic activity against aconitine induced arrhythmias at a dose of 25 mg/kg by po administration; assay type: functional, Heart
[18] = system: Rattus norvegicus; test: Cardiac arrest(CA) in rats tested for in vivo Antiarrhythmic activity against aconitine induced arrhythmias at a dose of 10 mg/kg by iv administration; assay type: functional, Heart
[19] = system: Rattus norvegicus; test: Cardiac arrest(CA) in rats tested for in vivo Antiarrhythmic activity against aconitine induced arrhythmias at a dose of 25 mg/kg by po administration; assay type: functional, Heart
[20] = system: Rattus norvegicus; test: Ventricular fibrillation (VF) in rats tested for in vivo Antiarrhythmic activity against aconitine induced arrhythmias at a dose of 25 mg/kg by po administration; assay type: functional, Heart
[21] = system: Cavia porcellus; test: Change in heart rate(HR) in guinea pig tested for in vivo antiarrhythmic activity against ouabain induced cardiac arrhythmias at a dose of 20 mg/kg by po administration; value ranges from 18-27%; assay type: functional
[22] = system: Cavia porcellus; test: Change in heart rate(HR) in guinea pig tested for in vivo antiarrhythmic activity against ouabain induced cardiac arrhythmias at a dose of 10 mg/kg by iv administration; value ranges from 17-18%; assay type: functional
[23] = system: Rattus norvegicus; test: Change in heart rate(HR) in rats tested for in vivo antiarrhythmic activity against aconitine induced arrhythmias at a dose of 10 mg/kg by iv administration; value ranges from 18-30%; assay type: functional
[24] = system: Rattus norvegicus; test: Change in heart rate(HR) in rats tested for in vivo antiarrhythmic activity against aconitine induced arrhythmias at a dose of 25 mg/kg by po administration; value ranges from 11-17%; assay type: functional
[25] = species: Cavia porcellus; test: Antiarrhythmic effect expressed as percent reduction of the maximal rate of stimulation for antiarrhythmic activity in guinea pig auricle at 8 uM; NS means not significant; assay type: functional; settings: Heart

Log P/(100-P) [1]: -0.865
SMILES: CC(C)OC(=O)C1CCN(CCCC(=O)c2ccc(F)cc2)CC1
Inhibition [2]: 12%

Log P/(100-P) [1]: -0.493
SMILES: COC(=O)C1CCN(CCCC(=O)c2ccc(F)cc2)CC1
Amount of Ouabain used [3]: 101.35
Amount of Ouabain used [4]: 124.56
Amount of Ouabain used [5]: 187.05
Change in heart rate [6]: 17%
Change in heart rate [7]: 10%
Inhibition [2]: 24.33%
Amount of Ouabain used [8]: 175.76
Amount of Ouabain used [9]: 138.04
Amount of Ouabain used [10]: 153.65
Amount of Acotine used [11]: 373.36
Amount of Acotine used [12]: 231.27
Amount of Acotine used [13]: 226.74
Change in heart rate [14]: 16%
Change in heart rate [15]: 16%
Amount of Acotine used [16]: 132.79
Amount of Acotine used [17]: 159.29
Amount of Acotine used [18]: 544.28
Amount of Acotine used [19]: 457.72
Amount of Acotine used [20]: 356.09

Log P/(100-P) [1]: -0.954
SMILES: CCCOC(=O)C1CCN(CCCC(=O)c2ccc(F)cc2)CC1
Inhibition [2]: 10%

Log P/(100-P) [1]: -0.954
SMILES: COC(=O)C1CCN(CCC(=O)N2CCN(c3ccc(F)cc3)CC2)CC1
Inhibition [2]: 10%

Log P/(100-P) [1]: -1.195
SMILES: COC(=O)C1CCN(CCCN2CCN(c3ccccc3)CC2)CC1
Inhibition [2]: 6%

SMILES: C=C[C@H]1CN2CC[C@H]1C[C@@H]2[C@@H](O)c1ccnc2ccc(OC)cc12.C=C[C@H]1CN2CC[C@H]1C[C@@H]2[C@@H](O)c1ccnc2ccc(OC)cc12.O.O.O=S(=O)(O)O [QUINIDINE SULFATE]
Amount of Ouabain used [3]: 128.33
Amount of Ouabain used [4]: 138.99
Amount of Ouabain used [5]: 225.31
Change in heart rate [21]: 18%
Inhibition [2]: 29.68%
Amount of Ouabain used [8]: 187.59
Amount of Ouabain used [9]: 167.78
Amount of Ouabain used [10]: 201.34
Change in heart rate [22]: 17%
Amount of Acotine used [11]: 370
Amount of Acotine used [12]: 252.72
Amount of Acotine used [13]: 237.02
Change in heart rate [23]: 18%
Change in heart rate [24]: 11%
Amount of Acotine used [16]: 156.24
Amount of Acotine used [17]: 173.66
Amount of Acotine used [18]: 523.64
Amount of Acotine used [19]: 581.06
Amount of Acotine used [20]: 416.36

SMILES: COC(=O)C1CCN(CCCN2CCN(c3ccccn3)CC2)CC1
inhibition [25]: inactive

SMILES: COC(=O)C1CCN(CCCN2CCN(c3ccc(F)cc3)CC2)CC1
inhibition [25]: inactive

Log P/(100-P) [1]: -1.123
SMILES: COC(=O)C1CCN(CCCOc2cccc(NC(C)=O)c2)CC1
Inhibition [2]: 7%

Log P/(100-P) [1]: -0.462
SMILES: CCOC(=O)C1CCN(CCCC(=O)c2ccc(F)cc2)CC1
Inhibition [2]: 25.66%
